The results in this text go back to patent publication US20200010910A1, “Cytotoxic Chemotherapy-Based Predictive Assays for Acute Myeloid Leukemia” (The Regents of The University of California, priority 2017, published 2020).

The test system of one assay is A549 tumor xenografts. In words: DNA repair: monoadducts remaining in excised xenograft tumor. It is filed as in vivo, mice. The conditions noted are these: tumor excised 4 h after microdose, 8 hours in carboplatin-free medium. The method, then: (§1) DNA repair rates in the xenograft tumor cells were also observed to correlate with carboplatin resistance. This is exemplified by the measurement of DNA repair in the A549 and H232A tumor xenografts (FIG. 10D). Four hours after a microdose was administered to three mice each with A549 and H232A tumor xenografts, the animals were sacrificed and tumors were excised. Tissue from each tumor was minced with a scalpel and washed with PBS. Half of the sample was frozen immediately (control) and half was incubated in cell culture medium (no carboplatin) for 8 hours prior to storage. DNA was extracted from the two sets of experiments and analyzed for carboplatin-DNA monoadducts. The resistant A549 cell line had 4±3% of the carboplatin-DNA monoadducts remaining compared to the control, whereas 56±8% of the monoadducts persisted for the drug sensitive H23 cells.

Another assay deals with H232A tumor xenografts. Described as above. It is filed as in vivo, mice. The conditions noted are these: H23; tumor excised 4 h after microdose, 8 hours in carboplatin-free medium. As for the experimental part: as §1
A further assay concerns 5637R. As to the kind of experiment: MTT assay IC50, oxaliplatin-resistant bladder cancer sub-line. It is filed as cell-based, human. The conditions noted are these: 5637R, 72 hours. As for the experimental part:
Drug-DNA adduct formation and repair was measured by accelerator mass spectrometry.
To confirm that 5637 was the original ATCC cell line, and that 5637R originated from the parental 5637 cell line, both cultures were sent to the ATCC Cell Line Authentication Service for cell verification per the ATCC protocol. More specifically, fifteen short tandem repeat (STR) loci plus the gender determining locus, amelogenin, were amplified using the commercially available PowerPlex® 16HS Kit from Promega.
These two cell lines were also cultured with a range of concentrations of cisplatin, carboplatin, gemcitabine, doxorubicin, methotrexate and vinblastine for 72 hours to determine IC50 for these other drugs (FIG. 16C). These drugs were chosen because of their frequent use in the treatment of bladder cancer.

Another assay deals with PDX Model BL0269. As to the kind of experiment: drug-DNA adducts in PDX tumor by AMS. It is filed as in vivo, NSG mice. An excerpt:
(§2) Female NSG mice (5-8 weeks of age, body weight: 20 to 25 g) were obtained from Jackson Laboratories (CA, USA). All animals were kept under pathogen-free conditions and were allowed to acclimatize for at least 4 days prior to any experiments. PDX models bearing the indicated patient derived xenografts were created by subcutaneous injection at the flank of 1 mm^3 tumor tissue. To establish multiple PDXs to allow efficacy studies with multiple drugs, PDXs from passage 2-4 were minced into 1 mm^3 sections and injected subcutaneously into multiple mice. At least 3 mice were used for each treatment group. Tumors were allowed to grow to at about 100 mm^3 before being assessed for drug sensitivity or the induction of DNA adducts by the administration of a microdose or a therapeutic dose of labeled drug. To assess tumor response to chemotherapy, cisplatin was administered at 2 mg/kg IV every 7 days for a total of 3 cycles, or gemcitabine was administered at 150 mg/kg IP every 7 days for a total of 4 cycles. G/C combination chemotherapy consisted of the simultaneous administration of both drugs using the schema described above. Tumor growth was assessed by measuring palpable tumors with a caliper and calculating tumor volume. Drug-DNA adduct frequencies were measured in tumor tissue collected 24 hours after intravenous injection of labeled drug and stored at −80° C. until DNA isolation. DNA was isolated using a modified Wizard procedure (Promega), quantitated by spectrophotometry, and then stored frozen at −20° C. until AMS analysis. Ten micrograms of DNA per sample was converted to graphite and measured by AMS for 14C quantification as previously described.
(§3) NSG mice bearing the indicated PDX tumors were injected with a microdose of ^14C-labeled carboplatin (FIG. 22A) or ^14C-labeled gemcitabine (FIG. 22B). The microdose of ^14C-labeled carboplatin was 0.375 mg/kg carboplatin, 50,000 dpm/g. The microdose of ^14C-labeled gemcitabine was 0.092 mg/kg gemcitabine, 1000 dpm/g. The doses of each drug administered to the mice were chosen to target 1 μM in plasma concentration of carboplatin and 0.3 μM in plasma concentration of gemcitabine. These plasma concentrations represent 1% of the approximate peak plasma concentration during human chemotherapy. Animals were sacrificed after 24 h and drug-DNA adduct frequency was determined from collected tumor tissue by AMS measurements of ^14C in tumor DNA. Carboplatin DNA-adduct levels correlate with PDX model sensitivity to cisplatin at 24 h after microdosing (FIG. 22A). Gemcitabine DNA-adduct levels correlate with PDX model sensitivity to gemcitabine at 24 h after microdosing (FIG. 22B). […] There is no significant difference in carboplatin-DNA monoadduct levels between the three resistant PDX models. […] We conclude that microdose induced carboplatin-DNA monoadducts predicts sensitivity to cisplatin chemotherapy, and microdose induced gemcitabine incorporation predicts sensitivity to gemcitabine chemotherapy.
(§4) In this example we test whether gemcitabine/carboplatin (G/Carbo) combination therapy has an effect on the formation of drug-DNA adducts in this synergistic tumor model. In FIG. 23A, NGS mice bearing BL0645 xenographs were administered via tail vein injection a therapeutic dose of [^14C]carboplatin alone or a therapeutic dose of [^14C]carboplatin in combination with a therapeutic dose of gemcitabine. Carboplatin-DNA monoadducts were measured in tumor tissue 24 h after dosing. A therapeutic dose of the combination [^14C]carboplatin plus unlabeled gemcitabine leads to a significant increase in carboplatin-DNA monoadduct level (94.84±16.02 versus 209.6±64.66 adducts per 10^8 nucleotides, p=0.032) compared to treatment with carboplatin alone. In FIG. 23B, the same experiment was conducted in which the mice received a therapeutic dose of [^14C]gemcitabine alone or a therapeutic dose of [^14C]gemcitabine in combination with a therapeutic dose of unlabeled carboplatin. […]

In the next assay the test system is PDX Model BL0645. As to the kind of experiment: drug-DNA adducts in PDX tumor by AMS. It is filed as in vivo, NSG mice. The conditions noted are these: 24 h.
Text: as §2, §3, §4

On to `N.N.O=C([O-])C1(C(=O)[O-])CCC1.[Pt+2]` [carboplatin], for which the “carboplatin-DNA monoadducts remaining compared to the control” value in the assay on A549 tumor xenografts was found to be 4±3%; in the assay with H232A tumor xenografts, 56±8%. The IC50 (commonly the concentration that inhibits the measured activity by half) in the assay with 5637R came out at 72.2 µM. Also, the Carboplatin-DNA monoadduct levels with PDX Model BL0269 (control experiment FIG. 23E, microdose single agent or G/Carbo combination) was 1.85±0.798 adducts per 10^8 nucleotides. In addition, the “mean carboplatin-DNA monoadduct level” value is recorded as 1.77±0.706 adducts per 10^8 nucleotides in the assay with PDX Model BL0269 (microdose 0.375 mg/kg carboplatin, 24 h (FIG. 22A)) and 1.27±0.307 adducts per 10^8 nucleotides in the assay on PDX Model BL0645 (microdose 0.375 mg/kg carboplatin alone or with gemcitabine 0.092 mg/kg). The carboplatin-DNA monoadduct level in the assay on PDX Model BL0645 (therapeutic 37.5 mg/kg carboplatin alone or with gemcitabine 9.2 mg/kg) is listed as 94.84±16.02 adducts per 10^8 nucleotides.
